Results reported in ChEMBL document CHEMBL1201862, “PubChem BioAssay data set” (2004).
Active and inactive are the calls of the source.

Experiments:
[1] = target: T1, Voltage-gated inwardly rectifying potassium channel KCNH2 (Homo sapiens, UniProt Q12809); conditions: Potency;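 further: confirmatory quantitative high-throughput screen measuring inhibition of hERG channel activity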
[2] = target: Cytochrome P450 2D6 (Homo sapiens, UniProt P10635);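 further: CYP2D6 member of a cytochrome P450 panel assay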
[3] = target: Cytochrome P450 2C19 (Homo sapiens, UniProt P33261); assay: Cytochrome panel assay with activity outcomes. Panel member name: p450-cyp2c19 Compounds with AC50 equal or less than 10 uM are considered active; format: functional; conditions: read-out: AC50
[4] = Luminescence Cell-Based Dose Confirmation HTS to Identify Inhibitors of Platelet Dense Granule Release. [Related pubchem assays: 1663 (Primary HTS), 1678 (Summary of Project)]; format: functional
[5] = target: fMet-Leu-Phe receptor (Homo sapiens, UniProt P21462); assay: formyl peptide receptor binders – dose response (AID 519); format: functional
Chain of fMet-Leu-Phe receptor (P21462 whole entry): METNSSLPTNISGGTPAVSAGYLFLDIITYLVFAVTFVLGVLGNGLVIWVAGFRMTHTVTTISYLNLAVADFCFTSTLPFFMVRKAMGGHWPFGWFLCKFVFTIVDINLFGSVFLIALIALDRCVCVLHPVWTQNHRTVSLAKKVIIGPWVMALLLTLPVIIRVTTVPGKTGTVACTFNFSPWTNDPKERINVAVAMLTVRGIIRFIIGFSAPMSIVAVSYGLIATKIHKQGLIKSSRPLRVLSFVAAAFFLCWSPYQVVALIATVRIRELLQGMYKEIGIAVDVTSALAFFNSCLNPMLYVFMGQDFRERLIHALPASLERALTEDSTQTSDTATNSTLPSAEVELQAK

[6] = target: Luciferin 4-monooxygenase (Photinus pyralis, UniProt P08659); assay: inhibition of purified Photinus pyralis luciferase – biochemical, luminescence, dose response (AID 1891)
Chain of Luciferin 4-monooxygenase (P08659 whole entry): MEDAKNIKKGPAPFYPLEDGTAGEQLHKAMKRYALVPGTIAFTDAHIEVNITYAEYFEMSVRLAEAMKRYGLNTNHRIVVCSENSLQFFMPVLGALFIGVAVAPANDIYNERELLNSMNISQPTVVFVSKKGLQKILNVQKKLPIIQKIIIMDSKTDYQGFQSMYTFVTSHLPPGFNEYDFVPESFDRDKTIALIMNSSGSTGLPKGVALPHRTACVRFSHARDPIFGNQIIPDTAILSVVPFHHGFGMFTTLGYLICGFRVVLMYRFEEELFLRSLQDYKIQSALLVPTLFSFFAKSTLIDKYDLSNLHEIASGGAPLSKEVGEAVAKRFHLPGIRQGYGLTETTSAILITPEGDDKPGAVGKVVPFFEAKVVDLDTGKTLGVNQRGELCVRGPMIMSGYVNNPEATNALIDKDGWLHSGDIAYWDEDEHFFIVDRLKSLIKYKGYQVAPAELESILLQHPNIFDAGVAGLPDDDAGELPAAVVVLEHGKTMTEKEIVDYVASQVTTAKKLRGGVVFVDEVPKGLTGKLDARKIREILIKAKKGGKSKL

[7] = target: T2, Kappa-type opioid receptor (Homo sapiens, UniProt P41145); format: functional
T2 sequence (P41145 whole entry): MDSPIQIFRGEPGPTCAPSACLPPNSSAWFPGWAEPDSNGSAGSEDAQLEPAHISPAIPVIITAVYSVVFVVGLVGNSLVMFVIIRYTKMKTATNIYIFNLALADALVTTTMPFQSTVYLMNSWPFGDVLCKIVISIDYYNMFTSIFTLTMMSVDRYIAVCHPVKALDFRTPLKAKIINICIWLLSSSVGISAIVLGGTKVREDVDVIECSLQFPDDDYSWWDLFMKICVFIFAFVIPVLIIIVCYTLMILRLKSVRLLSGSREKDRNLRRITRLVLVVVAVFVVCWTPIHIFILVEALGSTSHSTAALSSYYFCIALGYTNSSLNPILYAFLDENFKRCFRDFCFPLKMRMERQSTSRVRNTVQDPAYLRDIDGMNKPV

[8] = test system: Streptococcus; assay: GAS UMAA2166 growth inhibition – luminescence, BacTiterGlo, counter-screen for streptokinase expression inhibitor project, dose response (AID 1915); format: functional, organism-based; conditions: read-out: EC50;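 further: potency for reduction of bacterial viability or growth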
[9] = target: T3, Delta-type opioid receptor (Homo sapiens, UniProt P41143); assay: HTS Image-Based Screen for Agonists of the DOR Receptor. [Related pubchem assays (depositor defined):AID1777, AID1786, AID2133]; format: functional
T3 sequence (P41143 whole entry): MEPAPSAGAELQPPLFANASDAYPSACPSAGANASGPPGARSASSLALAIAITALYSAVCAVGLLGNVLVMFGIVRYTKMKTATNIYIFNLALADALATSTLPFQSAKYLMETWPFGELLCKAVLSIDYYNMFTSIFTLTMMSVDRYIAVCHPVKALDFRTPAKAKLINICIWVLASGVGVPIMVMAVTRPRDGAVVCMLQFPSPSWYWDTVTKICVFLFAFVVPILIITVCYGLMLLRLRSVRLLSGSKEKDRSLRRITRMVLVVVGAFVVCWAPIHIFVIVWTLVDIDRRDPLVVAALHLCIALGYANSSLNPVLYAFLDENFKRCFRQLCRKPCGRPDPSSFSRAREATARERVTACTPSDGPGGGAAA

[10] = target: T1, Voltage-gated inwardly rectifying potassium channel KCNH2; assay: concentration-dependent hERG rescue from blockers – cell-based, thallium flux, dose response (AID 2121); format: ADME
[11] = target: Beta-galactosidase (Escherichia coli, UniProt Q8VNN2); format: functional
[12] = loss of viability in HepG2 cells – cell-based, CellTiter-Glo, cherry-picked, cytotoxicity control for Shn3 inhibitor project, dose response (AID 624134); format: functional
[13] = target: T3, Delta-type opioid receptor; assay: HTS Image-Based Screen for Antagonists of the DOR Receptor. [Related pubchem assays (depositor defined):AID1777, AID1785, AID1786, AID2133]; format: functional
[14] = target: E3 ubiquitin-protein ligase Mdm2 (Homo sapiens, UniProt Q00987); assay: MDM2-luc reporter signal enhancers, multi-concentration potency testing, MDM2 ubiquitin-protein ligase inhibitor program, whole-cell format, luminescence detection, 384-well microplate (AID 1394); format: functional;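 further: MDM2 E3 inhibitors raise luminescence so EC50 is for signal enhancement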
[15] = target: Induced myeloid leukemia cell differentiation protein Mcl-1 (Homo sapiens, UniProt Q07820); format: functional
[16] = target: Mu-type opioid receptor (Homo sapiens, UniProt P35372); assay: HTS Image-Based Screen for Agonists of the MOR Receptor. [Related pubchem assays (depositor defined):AID1777, AID1785, AID1786, AID2133]; format: functional;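 further: imaging of beta-arrestin GFP recruitment into spots after receptor activation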
Chain of Mu-type opioid receptor (P35372 whole entry): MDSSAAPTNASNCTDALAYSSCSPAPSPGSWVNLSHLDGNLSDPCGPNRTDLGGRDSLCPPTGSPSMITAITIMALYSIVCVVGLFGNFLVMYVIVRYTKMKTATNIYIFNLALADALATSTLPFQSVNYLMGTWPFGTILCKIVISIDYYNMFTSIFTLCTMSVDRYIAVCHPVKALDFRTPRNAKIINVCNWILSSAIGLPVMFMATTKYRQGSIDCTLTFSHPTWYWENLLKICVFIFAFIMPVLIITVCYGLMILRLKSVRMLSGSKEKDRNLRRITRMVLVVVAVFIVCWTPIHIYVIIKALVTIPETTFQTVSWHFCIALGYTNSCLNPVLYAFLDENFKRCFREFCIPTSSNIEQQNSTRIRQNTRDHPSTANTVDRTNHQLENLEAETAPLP

[17] = target: T4, Heat shock factor protein 1 (Mus musculus, UniProt P38532); assay: enhancement of HSF1-driven luciferase signal – cell-based, NIH3T3, luminescence, dose retest, confirmation (AID 435004); format: functional;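 further: stress induced by proteasome inhibitor MG132 added 30 min after compound; luciferase reporter driven by HSF1 response element in NIH3T3 cells; actives raise luminescence as potentiators of the MG132 stress response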
T4 sequence (P38532 whole entry): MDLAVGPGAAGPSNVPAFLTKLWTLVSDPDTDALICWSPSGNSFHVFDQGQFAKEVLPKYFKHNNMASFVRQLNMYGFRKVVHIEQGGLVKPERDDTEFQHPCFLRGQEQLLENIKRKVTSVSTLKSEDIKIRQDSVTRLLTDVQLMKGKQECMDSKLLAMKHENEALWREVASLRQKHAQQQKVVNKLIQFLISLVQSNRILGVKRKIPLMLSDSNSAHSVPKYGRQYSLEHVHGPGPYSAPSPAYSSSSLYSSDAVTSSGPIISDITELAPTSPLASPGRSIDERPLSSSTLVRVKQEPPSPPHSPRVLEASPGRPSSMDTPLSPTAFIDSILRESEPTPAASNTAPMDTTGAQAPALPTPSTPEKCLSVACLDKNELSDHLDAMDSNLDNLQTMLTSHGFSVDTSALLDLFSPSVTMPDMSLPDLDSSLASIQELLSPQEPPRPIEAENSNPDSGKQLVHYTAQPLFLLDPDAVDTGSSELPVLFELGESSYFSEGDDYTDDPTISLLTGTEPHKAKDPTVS

[18] = test system: Vero; assay: cells; format: functional; conditions: Chlorocebus sabaeus
[19] = target: T2, Kappa-type opioid receptor; format: functional; remark: listed apart in the source
[20] = test system: Streptococcus sp. 'group A'; assay: Streptococcus pyogenes SK(-)GAS viability under kanamycin – luminescence, BacTiterGlo, confirmation, counter-screen for streptokinase expression inhibitor project, dose response (AID 1900); format: functional, organism-based
[21] = non-specific 3'UTR reporter inhibition in Clone20-Shn3RL – cell-based, Renilla luciferase, cherry-picked, counter-screen for Shn3 inhibitor project, dose response (AID 624133); format: functional
[22] = reduction of Shn3 3'UTR-driven luciferase in osteoblasts – cell-based, Clone20 osteoblasts, firefly luciferase, cherry-picked, dose response (AID 624132); format: functional;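 further: firefly luciferase luminescence from reporter carrying the Shn3 3'UTR in osteoblasts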
[23] = viability loss of HMLE_sh_eGFP cells – cell-based, luminescence, counter-screen for HMLE_sh_ECad selective toxicity project, dose response (AID 463074); format: functional, Homo sapiens;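 further: HMLE human mammary epithelial cells expressing control shRNA against eGFP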
[24] = Luminescence Cell-Based Dose Retest to Confirm Inhibitors of Cancer Stem Cells. [Related pubchem assays (depositor defined):AID2717, AID2721]; format: functional; conditions: Homo sapiens
[25] = target: Dual specificity protein kinase CLK1 (Homo sapiens, UniProt P49759); assay: inhibition of human CLK1 activity – biochemical, cherry-picked samples, selectivity assay for Dyrk1A inhibitor project, dose response (AID 588811)
[26] = target: Phosphomannomutase 2 (Homo sapiens, UniProt O15305); assay: Counter screen SAR assay for PMM2 inhibitors via a fluorescence intensity assay. [Related pubchem assays (depositor defined):AID1545, AID1574]
[27] = target: T5, Mannose-6-phosphate isomerase (Homo sapiens, UniProt P34949); assay: phosphomannose isomerase inhibition – biochemical, fluorescence intensity, confirmation (AID 1535)
T5 sequence (P34949 whole entry): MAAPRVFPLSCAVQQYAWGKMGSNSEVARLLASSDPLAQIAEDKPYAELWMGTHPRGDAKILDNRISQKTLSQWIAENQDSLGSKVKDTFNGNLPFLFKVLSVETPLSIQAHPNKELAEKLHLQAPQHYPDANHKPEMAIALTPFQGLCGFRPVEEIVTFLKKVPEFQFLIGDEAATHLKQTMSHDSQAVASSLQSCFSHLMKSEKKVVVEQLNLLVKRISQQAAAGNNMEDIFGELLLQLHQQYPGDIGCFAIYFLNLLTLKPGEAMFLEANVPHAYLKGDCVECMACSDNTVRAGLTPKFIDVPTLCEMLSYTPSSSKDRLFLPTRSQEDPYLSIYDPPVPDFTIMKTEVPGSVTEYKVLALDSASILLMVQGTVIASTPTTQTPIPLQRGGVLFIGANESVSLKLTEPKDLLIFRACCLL

[28] = target: Potassium voltage-gated channel subfamily KQT member 2 (Rattus norvegicus, UniProt O88943); assay: rat KCNQ2 current potentiators – automated patch clamp, KCNQ2-CHO cells, SAR follow-up (AID 493113); format: functional
Chain of Potassium voltage-gated channel subfamily KQT member 2 (O88943 whole entry): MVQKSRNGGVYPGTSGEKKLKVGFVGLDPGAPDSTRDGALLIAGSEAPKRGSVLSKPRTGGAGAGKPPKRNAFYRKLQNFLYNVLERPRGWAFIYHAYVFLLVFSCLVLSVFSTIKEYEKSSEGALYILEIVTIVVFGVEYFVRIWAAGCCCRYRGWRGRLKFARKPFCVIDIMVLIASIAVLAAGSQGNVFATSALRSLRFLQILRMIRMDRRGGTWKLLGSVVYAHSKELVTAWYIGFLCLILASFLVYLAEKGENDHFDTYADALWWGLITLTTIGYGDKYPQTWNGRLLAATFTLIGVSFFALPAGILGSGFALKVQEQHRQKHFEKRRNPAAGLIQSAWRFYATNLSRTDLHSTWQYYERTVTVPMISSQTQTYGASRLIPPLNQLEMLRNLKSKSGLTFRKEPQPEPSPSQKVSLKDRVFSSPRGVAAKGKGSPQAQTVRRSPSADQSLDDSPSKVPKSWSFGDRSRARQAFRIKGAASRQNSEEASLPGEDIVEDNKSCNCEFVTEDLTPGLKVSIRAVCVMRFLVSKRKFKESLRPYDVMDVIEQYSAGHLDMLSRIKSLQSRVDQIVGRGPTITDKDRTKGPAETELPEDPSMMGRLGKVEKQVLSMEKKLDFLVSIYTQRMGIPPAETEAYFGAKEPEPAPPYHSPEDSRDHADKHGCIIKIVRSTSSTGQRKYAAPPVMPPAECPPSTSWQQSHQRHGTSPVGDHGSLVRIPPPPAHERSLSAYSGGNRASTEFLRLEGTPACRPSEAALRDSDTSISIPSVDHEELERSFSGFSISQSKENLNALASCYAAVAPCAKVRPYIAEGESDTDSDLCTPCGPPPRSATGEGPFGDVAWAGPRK

[29] = target: Dual specificity protein phosphatase 3 (Homo sapiens, UniProt P51452); assay: SAR VHR1 Fluorescent Assay for In Vitro dose response studies Set 3. [Related pubchem assays (depositor defined):AID1654, AID1661, AID1878]; format: functional
[30] = test system: INS1; assay: beta-cell survival under cytokine stress – INS-1E, ATP luminescence, dry powder, dose response (AID 488844); format: functional, cell-based; conditions: Rattus norvegicus
[31] = target: T6, Short transient receptor potential channel 4 (Mus musculus, UniProt Q9QUQ5); assay: SAR Analysis for the identification of selective inhibits of the transient receptor potential cation channel C4 (TRPC4): Automated Electrophysiology. [Related pubchem assays (depositor defined):AID2256]; format: functional
T6 sequence (Q9QUQ5 whole entry): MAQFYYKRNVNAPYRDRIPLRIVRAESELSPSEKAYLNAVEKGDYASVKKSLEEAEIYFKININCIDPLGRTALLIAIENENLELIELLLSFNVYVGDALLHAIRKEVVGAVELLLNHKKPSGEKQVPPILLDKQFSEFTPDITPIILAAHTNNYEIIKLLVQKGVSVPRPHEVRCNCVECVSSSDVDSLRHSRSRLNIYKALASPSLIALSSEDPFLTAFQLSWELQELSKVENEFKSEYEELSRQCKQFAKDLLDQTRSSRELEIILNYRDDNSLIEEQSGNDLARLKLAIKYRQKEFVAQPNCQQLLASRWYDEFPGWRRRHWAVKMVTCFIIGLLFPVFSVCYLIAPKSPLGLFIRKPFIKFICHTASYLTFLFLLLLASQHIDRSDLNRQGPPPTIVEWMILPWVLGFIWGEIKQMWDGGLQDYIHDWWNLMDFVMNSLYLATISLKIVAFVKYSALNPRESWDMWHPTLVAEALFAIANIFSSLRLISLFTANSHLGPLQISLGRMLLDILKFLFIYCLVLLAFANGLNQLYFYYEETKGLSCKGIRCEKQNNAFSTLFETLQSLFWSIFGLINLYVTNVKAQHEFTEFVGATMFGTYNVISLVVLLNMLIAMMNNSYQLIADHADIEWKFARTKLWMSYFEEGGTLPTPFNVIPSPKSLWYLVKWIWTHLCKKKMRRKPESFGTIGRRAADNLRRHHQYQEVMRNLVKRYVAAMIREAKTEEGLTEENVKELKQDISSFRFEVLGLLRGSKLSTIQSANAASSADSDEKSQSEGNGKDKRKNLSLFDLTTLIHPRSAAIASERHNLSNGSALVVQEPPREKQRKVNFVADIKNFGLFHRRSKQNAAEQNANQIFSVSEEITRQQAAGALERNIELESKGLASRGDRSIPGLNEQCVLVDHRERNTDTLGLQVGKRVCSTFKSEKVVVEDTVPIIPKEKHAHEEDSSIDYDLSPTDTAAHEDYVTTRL

[32] = target: T6, Short transient receptor potential channel 4; assay: potency of mouse TRPC4 calcium flux blockers – cell-based, HEK293 TRPC4/mu-opioid, DAMGO stimulus, Fluo-4, dose response (AID 492994); format: functional
[33] = target: Short transient receptor potential channel 6 (Mus musculus, UniProt Q61143); assay: mouse TRPC6 channel blockers, concentration series – HEK293 cells, membrane potential dye, IC50, selectivity assay for selective TRPC4 inhibitor project, dose response (AID 492987); format: functional, cell-based
Chain of Short transient receptor potential channel 6 (Q61143 whole entry): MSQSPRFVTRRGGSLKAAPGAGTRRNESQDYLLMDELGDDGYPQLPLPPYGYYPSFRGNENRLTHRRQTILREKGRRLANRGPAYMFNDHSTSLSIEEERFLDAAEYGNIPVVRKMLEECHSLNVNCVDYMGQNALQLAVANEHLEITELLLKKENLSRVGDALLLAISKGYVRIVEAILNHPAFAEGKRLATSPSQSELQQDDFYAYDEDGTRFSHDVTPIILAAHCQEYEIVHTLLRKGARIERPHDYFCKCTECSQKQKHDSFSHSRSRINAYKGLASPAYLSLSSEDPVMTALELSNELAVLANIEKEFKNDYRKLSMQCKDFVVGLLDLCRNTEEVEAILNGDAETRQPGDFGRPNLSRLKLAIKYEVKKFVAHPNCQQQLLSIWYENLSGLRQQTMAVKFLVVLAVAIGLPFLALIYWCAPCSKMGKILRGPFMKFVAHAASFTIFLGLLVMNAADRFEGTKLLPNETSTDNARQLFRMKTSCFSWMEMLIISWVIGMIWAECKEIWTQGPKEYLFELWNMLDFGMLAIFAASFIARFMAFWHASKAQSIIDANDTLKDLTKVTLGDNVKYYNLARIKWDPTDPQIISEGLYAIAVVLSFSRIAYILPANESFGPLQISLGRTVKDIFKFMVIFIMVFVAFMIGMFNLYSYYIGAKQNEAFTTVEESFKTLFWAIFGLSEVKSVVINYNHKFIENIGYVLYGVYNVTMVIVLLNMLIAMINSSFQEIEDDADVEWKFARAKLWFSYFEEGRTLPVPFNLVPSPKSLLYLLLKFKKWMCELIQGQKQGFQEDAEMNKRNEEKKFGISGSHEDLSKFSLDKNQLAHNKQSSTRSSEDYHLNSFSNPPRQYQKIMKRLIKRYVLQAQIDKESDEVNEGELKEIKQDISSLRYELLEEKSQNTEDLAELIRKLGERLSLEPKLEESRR

[34] = target: T6, Short transient receptor potential channel 4; assay: mouse TRPC4 block via Gq-coupled stimulation – cell-based, acetylcholine stimulus, HEK293 TRPC4, Fluo-4, SAR follow-up (AID 492996); format: functional

T1 sequence (Q12809 whole entry): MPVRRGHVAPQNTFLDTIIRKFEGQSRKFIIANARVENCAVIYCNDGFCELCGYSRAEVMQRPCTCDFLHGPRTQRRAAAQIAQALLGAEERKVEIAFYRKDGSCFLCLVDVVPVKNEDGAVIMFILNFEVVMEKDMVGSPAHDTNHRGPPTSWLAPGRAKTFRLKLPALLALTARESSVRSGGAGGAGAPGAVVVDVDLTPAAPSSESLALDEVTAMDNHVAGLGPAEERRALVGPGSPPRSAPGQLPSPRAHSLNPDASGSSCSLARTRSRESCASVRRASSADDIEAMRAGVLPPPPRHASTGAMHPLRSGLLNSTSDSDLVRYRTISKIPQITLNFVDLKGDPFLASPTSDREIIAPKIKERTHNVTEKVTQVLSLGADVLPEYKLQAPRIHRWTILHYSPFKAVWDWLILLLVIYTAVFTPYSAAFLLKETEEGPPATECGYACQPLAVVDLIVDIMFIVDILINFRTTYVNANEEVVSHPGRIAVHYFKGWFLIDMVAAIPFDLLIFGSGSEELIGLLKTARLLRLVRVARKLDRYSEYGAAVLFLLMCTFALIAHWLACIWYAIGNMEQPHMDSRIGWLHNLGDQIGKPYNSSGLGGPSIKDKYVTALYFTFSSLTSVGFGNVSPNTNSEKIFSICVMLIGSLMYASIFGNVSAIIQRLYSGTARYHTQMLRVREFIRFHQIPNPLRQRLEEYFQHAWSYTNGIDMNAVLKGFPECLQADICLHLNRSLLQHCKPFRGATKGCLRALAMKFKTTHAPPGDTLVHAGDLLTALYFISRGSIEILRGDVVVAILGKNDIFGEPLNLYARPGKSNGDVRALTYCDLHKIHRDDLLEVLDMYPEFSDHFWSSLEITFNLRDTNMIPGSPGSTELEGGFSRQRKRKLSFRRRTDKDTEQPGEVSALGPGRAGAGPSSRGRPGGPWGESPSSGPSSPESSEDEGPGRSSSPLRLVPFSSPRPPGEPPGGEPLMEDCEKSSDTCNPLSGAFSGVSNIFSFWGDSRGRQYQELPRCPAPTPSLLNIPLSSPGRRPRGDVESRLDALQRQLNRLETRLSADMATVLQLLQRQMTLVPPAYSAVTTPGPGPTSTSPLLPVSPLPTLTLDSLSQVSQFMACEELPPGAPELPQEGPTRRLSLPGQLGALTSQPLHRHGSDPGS

## O=C(Cc1ccc(Cl)c(Cl)c1)N1CCCCC1CN1CCCC1 (centres undefined)
[1]
  AC50: 25.1 µM (inconclusive)

## Cc1ccc(C2C(C(=O)c3sc(C)nc3C)=C(O)C(=O)N2CCN2CCOCC2)o1 (centres undefined)
[2]
  AC50: inconclusive
[3]
  AC50: 0.00562 µM (inconclusive)
[4]
  EC50: > 112 µM (not active)
[5]
  Ki: > 66.7 µM (inactive)
[6]
  EC50: > 112 µM (not active)

## N=C1S/C(=C\c2ccc(-c3cccc(Cl)c3)o2)C(=O)N1c1nccs1
[7]
  IC50: > 32 µM
[8]
  EC50: 0.228 µM (active)
[9]
  EC50: > 32 µM (inactive)
[10]
  EC50: 0.42 µM (active)
[11]
  EC50: > 31.5 µM (inactive)
[12]
  AC50: 13.7 µM (active)
[13]
  IC50: > 32 µM (inactive)
[14]
  EC50: 0.01 µM (not active)
[15]
  IC50: 0.745 µM (active)
[16]
  EC50: > 32 µM (inactive)
[17]
  EC50: 5.39 µM (active)
[18]
  CC50: 4.5 µM (active)
[19]
  IC50: 5.72 µM (active)
[20]
  EC50: < 0.06 µM (active)
[21]
  AC50: 6.17 µM (active)
[22]
  AC50: 2.82 µM (active)

## Cc1ccc(OCC(=O)NNC(=S)NC(=O)c2cccs2)c(C)c1
[23]
  AC50: 37.8 µM (active)
[24]
  AC50: 9.13 µM (active)

## CN(Cc1cccs1)c1ncnc2ccc(-c3ccc4c(c3)OCO4)cc12
[25]
  AC50: < 0.00195 µM (active)

## Clc1nss/c1=N\c1ccccc1Br
[26]
  IC50: 57.3 µM (active)
[27]
  IC50: 11.9 µM (active)

## O=C(Nc1ccc(Cl)cc1Cl)C1CC2CCC1C2 (centres undefined)
[28]
  EC50: 1.52 µM (active)

## CC(C)(C)c1ccc(C(=O)NCc2nnc(SCC(=O)Nc3nc4ccccc4s3)n2-c2cccc(Cl)c2)cc1
[29]
  IC50: > 66 µM (inactive)

## COc1ccc(S(=O)(=O)N(C)C[C@@H]2Oc3c(NS(=O)(=O)c4ccc(Cl)cc4)cccc3C(=O)N([C@@H](C)CO)C[C@H]2C)cc1
[30]
  AC50: > 260 µM (inactive)

## Cc1cc(N2CCC[C@@H]2C)nc2ccccc12
[31]
  IC50: 4.26 µM (active)
[32]
  IC50: 2.5 µM (active)
[33]
  IC50: 11.8 µM (active)
[34]
  IC50: 17.1 µM (active)
